Where two headings read alike, the source gives them in different places.
Columns and labels:
[1] = tested on: Phytophthora infestans (the causal agent of tomato late blight); experiment: whole plant or invertebrate; assay type: in vivo; conditions: Phytophthora infestans
[2] = tested on: Pseudoperonospora cubensis (the causal agent of cucumber downy mildew); experiment: Test B: cucumber downy mildew, preventive spray on cucumber seedlings; assay type: in vivo; conditions: Pseudoperonospora cubensis

`Cc1cc(C(F)(F)F)nn1CC(=O)N1CCC(c2nc(C3=NOC(c4ccccc4)C3)cs2)CC1` (centres unmarked) [Compound 1, 4-[4-[4,5-dihydro-5-phenyl-3-isoxazolyl]-2-thiazolyl]-1-[[5-methyl-3-(trifluoromethyl)-1H-pyrazol-1-yl]acetyl]piperidine] was tested, and the pest or weed control at 0.05 ppm ([1]; read-out: TLB Obsd (disease control rating), Table A, Compound 1 alone 0.05 ppm) was 34%, the pest or weed control at 0.1 ppm ([1]; read-out: TLB Obsd (disease control rating), Table A, Compound 1 alone 0.1 ppm) was 78% and the pest or weed control at 0.15 ppm ([1]; read-out: TLB Obsd (disease control rating), Table A, Compound 1 alone 0.15 ppm) was 97%. It also gave a pest or weed control at 0.2 ppm ([1]; read-out: TLB Obsd (disease control rating), Table A, Compound 1 alone 0.2 ppm) of 94%, a pest or weed control at 1 ppm ([1]; read-out: TLB Obsd (disease control rating), Table A, Compound 1 alone 1 ppm) of 100% and a pest or weed control at 0.05 ppm ([1]; read-out: TLB Obsd (disease control rating), Table B, Compound 1 alone 0.05 ppm) of 26%. The pest or weed control at 0.1 ppm ([1]; read-out: TLB Obsd (disease control rating), Table B, Compound 1 alone 0.1 ppm) was 53%, the pest or weed control at 0.15 ppm ([1]; read-out: TLB Obsd (disease control rating), Table B, Compound 1 alone 0.15 ppm) was 59% and the pest or weed control at 0.2 ppm ([1]; read-out: TLB Obsd (disease control rating), Table B, Compound 1 alone 0.2 ppm) was 56%. For the same molecule, the pest or weed control at 1 ppm ([1]; read-out: TLB Obsd (disease control rating), Table B, Compound 1 alone 1 ppm) was 100%, the pest or weed control at 0.05 ppm ([1]; read-out: TLB Obsd (disease control rating), Table C, Compound 1 alone 0.05 ppm) was 17% and the pest or weed control at 0.1 ppm ([1]; read-out: TLB Obsd (disease control rating), Table C, Compound 1 alone 0.1 ppm) was 17%. It also gave a pest or weed control at 0.15 ppm ([1]; read-out: TLB Obsd (disease control rating), Table C, Compound 1 alone 0.15 ppm) of 57%, a pest or weed control at 0.2 ppm ([1]; read-out: TLB Obsd (disease control rating), Table C, Compound 1 alone 0.2 ppm) of 51% and a pest or weed control at 1 ppm ([1]; read-out: TLB Obsd (disease control rating), Table C, Compound 1 alone 1 ppm) of 99%. The pest or weed control at 0.05 ppm ([1]; read-out: TLB Obsd, Table D, Compound 1 alone at 0.05 ppm) was 32%, the pest or weed control at 0.1 ppm ([1]; read-out: TLB Obsd, Table D, Compound 1 alone at 0.1 ppm) was 52% and the pest or weed control at 0.15 ppm ([1]; read-out: TLB Obsd, Table D, Compound 1 alone at 0.15 ppm) was 90%. The pest or weed control at 0.2 ppm ([1]; read-out: TLB Obsd, Table D, Compound 1 alone at 0.2 ppm) was 67%, the pest or weed control at 1 ppm ([1]; read-out: TLB Obsd, Table D, Compound 1 alone at 1 ppm) was 100% and the pest or weed control at 0.05 ppm ([1]; read-out: TLB Obsd, Table E, Compound 1 alone at 0.05 ppm) was 33%. It also gave a pest or weed control at 0.1 ppm ([1]; read-out: TLB Obsd, Table E, Compound 1 alone at 0.1 ppm) of 75%, a pest or weed control at 0.15 ppm ([1]; read-out: TLB Obsd, Table E, Compound 1 alone at 0.15 ppm) of 92% and a pest or weed control at 0.2 ppm ([1]; read-out: TLB Obsd, Table E, Compound 1 alone at 0.2 ppm) of 90%. The pest or weed control at 1 ppm ([1]; read-out: TLB Obsd, Table E, Compound 1 alone at 1 ppm) was 100%, the pest or weed control at 0.025 ppm ([2]; Compound 1 alone 0.025 ppm, Table H evaluation set, rating 100 = 100% disease control, read-out: CDM Obsd) was 33% and the pest or weed control at 0.025 ppm ([2]; Compound 1 alone 0.025 ppm, Table I evaluation set, read-out: CDM Obsd) was 47%. For the same molecule, the pest or weed control at 0.025 ppm ([2]; Compound 1 alone 0.025 ppm, Table J evaluation set, read-out: CDM Obsd) was 47%, the pest or weed control at 0.025 ppm ([2]; Compound 1 alone 0.025 ppm, Table K evaluation set, read-out: CDM Obsd) was 76% and the pest or weed control at 0.025 ppm ([2]; Compound 1 alone 0.025 ppm, Table L evaluation set, read-out: CDM Obsd) was 51%. The pest or weed control at 0.05 ppm ([2]; Compound 1 alone 0.05 ppm, Table H evaluation set, read-out: CDM Obsd) was 40%, the pest or weed control at 0.05 ppm ([2]; Compound 1 alone 0.05 ppm, Table I evaluation set, read-out: CDM Obsd) was 47% and the pest or weed control at 0.05 ppm ([2]; Compound 1 alone 0.05 ppm, Table J evaluation set, read-out: CDM Obsd) was 47%. The pest or weed control at 0.05 ppm ([2]; Compound 1 alone 0.05 ppm, Table K evaluation set, read-out: CDM Obsd) was 92%, the pest or weed control at 0.05 ppm ([2]; Compound 1 alone 0.05 ppm, Table L evaluation set, read-out: CDM Obsd) was 51% and the pest or weed control at 0.075 ppm ([2]; Compound 1 alone 0.075 ppm, Table H evaluation set, read-out: CDM Obsd) was 40%. It also gave a pest or weed control at 0.075 ppm ([2]; Compound 1 alone 0.075 ppm, Table I evaluation set, read-out: CDM Obsd) of 47%, a pest or weed control at 0.075 ppm ([2]; Compound 1 alone 0.075 ppm, Table J evaluation set, read-out: CDM Obsd) of 47% and a pest or weed control at 0.075 ppm ([2]; Compound 1 alone 0.075 ppm, Table K evaluation set, read-out: CDM Obsd) of 89%. It also gave a pest or weed control at 0.075 ppm ([2]; Compound 1 alone 0.075 ppm, Table L evaluation set, read-out: CDM Obsd) of 51%, a pest or weed control at 0.1 ppm ([2]; Compound 1 alone 0.1 ppm, Table H evaluation set, read-out: CDM Obsd) of 76% and a pest or weed control at 0.1 ppm ([2]; Compound 1 alone 0.1 ppm, Table I evaluation set, read-out: CDM Obsd) of 57%. For the same molecule, the pest or weed control at 0.1 ppm ([2]; Compound 1 alone 0.1 ppm, Table J evaluation set, read-out: CDM Obsd) was 47%, the pest or weed control at 0.1 ppm ([2]; Compound 1 alone 0.1 ppm, Table K evaluation set, read-out: CDM Obsd) was 98% and the pest or weed control at 0.1 ppm ([2]; Compound 1 alone 0.1 ppm, Table L evaluation set, read-out: CDM Obsd) was 98%. The pest or weed control at 0.125 ppm ([2]; Compound 1 alone 0.125 ppm, Table H evaluation set, read-out: CDM Obsd) was 81%, the pest or weed control at 0.125 ppm ([2]; Compound 1 alone 0.125 ppm, Table I evaluation set, read-out: CDM Obsd) was 57% and the pest or weed control at 0.125 ppm ([2]; Compound 1 alone 0.125 ppm, Table J evaluation set, read-out: CDM Obsd) was 47%. It also gave a pest or weed control at 0.125 ppm ([2]; Compound 1 alone 0.125 ppm, Table K evaluation set, read-out: CDM Obsd) of 99%, a pest or weed control at 0.125 ppm ([2]; Compound 1 alone 0.125 ppm, Table L evaluation set, read-out: CDM Obsd) of 81% and a pest or weed control at 0.05 ppm ([2]; Table A, Compound 1 alone 0.05 ppm, read-out: CDM Obsd (disease control rating)) of 88%. It also gave a pest or weed control at 0.1 ppm ([2]; Table A, Compound 1 alone 0.1 ppm, read-out: CDM Obsd (disease control rating)) of 95%, a pest or weed control at 0.15 ppm ([2]; Table A, Compound 1 alone 0.15 ppm, read-out: CDM Obsd (disease control rating)) of 100% and a pest or weed control at 0.2 ppm ([2]; Table A, Compound 1 alone 0.2 ppm, read-out: CDM Obsd (disease control rating)) of 100%. For the same molecule, the pest or weed control at 1 ppm ([2]; Table A, Compound 1 alone 1 ppm, read-out: CDM Obsd (disease control rating)) was 100%, the pest or weed control at 0.05 ppm ([2]; Table B, Compound 1 alone 0.05 ppm, read-out: CDM Obsd (disease control rating)) was 64% and the pest or weed control at 0.1 ppm ([2]; Table B, Compound 1 alone 0.1 ppm, read-out: CDM Obsd (disease control rating)) was 86%. For the same molecule, the pest or weed control at 0.15 ppm ([2]; Table B, Compound 1 alone 0.15 ppm, read-out: CDM Obsd (disease control rating)) was 85%, the pest or weed control at 0.2 ppm ([2]; Table B, Compound 1 alone 0.2 ppm, read-out: CDM Obsd (disease control rating)) was 92% and the pest or weed control at 1 ppm ([2]; Table B, Compound 1 alone 1 ppm, read-out: CDM Obsd (disease control rating)) was 100%. For the same molecule, the pest or weed control at 0.05 ppm ([2]; Table C, Compound 1 alone 0.05 ppm, read-out: CDM Obsd (disease control rating)) was 77%, the pest or weed control at 0.1 ppm ([2]; Table C, Compound 1 alone 0.1 ppm, read-out: CDM Obsd (disease control rating)) was 86% and the pest or weed control at 0.15 ppm ([2]; Table C, Compound 1 alone 0.15 ppm, read-out: CDM Obsd (disease control rating)) was 95%. For the same molecule, the pest or weed control at 0.2 ppm ([2]; Table C, Compound 1 alone 0.2 ppm, read-out: CDM Obsd (disease control rating)) was 100%, the pest or weed control at 1 ppm ([2]; Table C, Compound 1 alone 1 ppm, read-out: CDM Obsd (disease control rating)) was 100% and the pest or weed control at 0.05 ppm ([2]; Table D, Compound 1 alone at 0.05 ppm, read-out: CDM Obsd) was 64%. It also gave a pest or weed control at 0.1 ppm ([2]; Table D, Compound 1 alone at 0.1 ppm, read-out: CDM Obsd) of 77%, a pest or weed control at 0.15 ppm ([2]; Table D, Compound 1 alone at 0.15 ppm, read-out: CDM Obsd) of 86% and a pest or weed control at 0.2 ppm ([2]; Table D, Compound 1 alone at 0.2 ppm, read-out: CDM Obsd) of 93%. The pest or weed control at 1 ppm ([2]; Table D, Compound 1 alone at 1 ppm, read-out: CDM Obsd) was 100%, the pest or weed control at 0.025 ppm ([2]; Table F, Compound 1 alone at 0.025 ppm, read-out: CDM Obsd) was 40% and the pest or weed control at 0.05 ppm ([2]; Table F, Compound 1 alone at 0.05 ppm, read-out: CDM Obsd) was 68%. It also gave a pest or weed control at 0.075 ppm ([2]; Table F, Compound 1 alone at 0.075 ppm, read-out: CDM Obsd) of 39%, a pest or weed control at 0.1 ppm ([2]; Table F, Compound 1 alone at 0.1 ppm, read-out: CDM Obsd) of 47% and a pest or weed control at 0.125 ppm ([2]; Table F, Compound 1 alone at 0.125 ppm, read-out: CDM Obsd) of 58%. The pest or weed control at 0.025 ppm ([2]; Table G, Compound 1 alone at 0.025 ppm, read-out: CDM Obsd) was 26%, the pest or weed control at 0.05 ppm ([2]; Table G, Compound 1 alone at 0.05 ppm, read-out: CDM Obsd) was 26% and the pest or weed control at 0.075 ppm ([2]; Table G, Compound 1 alone at 0.075 ppm, read-out: CDM Obsd) was 47%. It also gave a pest or weed control at 0.1 ppm ([2]; Table G, Compound 1 alone at 0.1 ppm, read-out: CDM Obsd) of 47% and a pest or weed control at 0.125 ppm ([2]; Table G, Compound 1 alone at 0.125 ppm, read-out: CDM Obsd) of 68%.
